From US10131652B2, “Pyrimidinyloxy benzene derivatives as herbicides” (E. I. DU PONT DE NEMOURS AND COMPANY, priority 2014, dated 2018)
Read-outs that look alike come from different tables or passages of the source.

Columns and labels:
Type in all cases: in vivo
[1] = tested on: waterhemp_RES2 (ALS & HPPD resistant common waterhemp, Amaranthus rudis); assay: Test F postemergence plant response; details: scale 0 to 100
In short: (§1)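 Postemergence application to plants 2–18 cm tall (1- to 4-leaf stage), then held in greenhouse 14–21 days. Visual rating against untreated controls on a 0–100 scale (0 no effect, 100 complete control).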

[2] = tested on: waterhemp_RES1 (ALS & Triazine resistant common waterhemp, Amaranthus rudis); assay: Test F postemergence plant response; details: scale 0 to 100
In short: as §1

kochia (Kochia scoparia) = assay: Test D postemergence plant response
In short: (§2)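 Scores reflect visual plant response relative to untreated controls on a 0 to 100 scale, where 100 means complete control. Treatment was postemergence on 2–18 cm plants in peat-based potting medium, with greenhouse assessment 13–15 days later.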

[3] = tested on: chickweed (common chickweed, Stellaria media); assay: Test D postemergence plant response
In short: as §2

wild oat (Avena fatua) = assay: Test D postemergence plant response
In short: as §2

[4] = tested on: velvetleaf (Abutilon theophrasti); assay: Test B pre-/postemergence plant response; details: for pest or weed control at 500 g/ha: 500 g ai/ha
In short: (§3)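 Visual injury rating, 0 (no effect) to 100 (complete control), vs untreated controls after ~10 d greenhouse. Pre: directed soil spray after planting in loam/sand. Post: plants 2–10 cm, 1–2 leaf stage. Compound in non-phytotoxic solvent plus surfactant.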

[5] = tested on: large (Lg) crabgrass (Digitaria sanguinalis); assay: Test B pre-/postemergence plant response; details: for pest or weed control at 500 g/ha: 500 g ai/ha
In short: as §3

[6] = tested on: morningglory (Ipomoea spp.); assay: Test B pre-/postemergence plant response; details: for pest or weed control at 500 g/ha: 500 g ai/ha
In short: as §3

[7] = Preemergence, 125 g ai/ha, 0 to 100 scale (0 no effect, 100 complete control)

Question: `FC(F)(F)c1cc(-c2ccccc2Oc2ncc(Cl)cn2)no1` [Compound 200, 5-chloro-2-[2-[5-(trifluoromethyl)-3-isoxazolyl]phenoxy]pyrimidine] was tested. Which “Plant response rating, Waterhemp_RES2” value ([1]; 8 g ai/ha Postemergence) did it give?
Answer: The value was 75.

Question: What about the “Plant response rating, Waterhemp_RES2” value ([1]; 16 g ai/ha Postemergence) of the same compound?
Answer: The value was 95.

Question: And the “Plant response rating, Waterhemp_RES2” value ([1]; 31 g ai/ha Postemergence)?
Answer: The value was 95.

Question: What about the “Plant response rating, Waterhemp_RES2” value ([1]; 62 g ai/ha Postemergence) of the same compound?
Answer: Its value is 98.

Question: And the “Plant response rating, Waterhemp_RES2” value ([1]; 125 g ai/ha Postemergence)?
Answer: Its value is 98.

Question: What about the “Plant response rating, Waterhemp_RES1” value ([2]; 8 g ai/ha Postemergence) of the same compound?
Answer: The value was 70.

Question: And the “Plant response rating, Waterhemp_RES1” value ([2]; 16 g ai/ha Postemergence)?
Answer: Its value is 75.

Question: What about the “Plant response rating, Waterhemp_RES1” value ([2]; 31 g ai/ha Postemergence) of the same compound?
Answer: Its value is 90.

Question: And the “Plant response rating, Waterhemp_RES1” value ([2]; 62 g ai/ha Postemergence)?
Answer: The value was 95.

Question: And the “Plant response rating, Waterhemp_RES1” value ([2]; 125 g ai/ha Postemergence)?
Answer: Its value is 98.

Question: What about the “Plant response rating (scale 0 to 100), Kochia” value (kochia (Kochia scoparia); 16 g ai/ha) of the same compound?
Answer: The value was 95.

Question: What about the pest or weed control at 31 g/ha (kochia (Kochia scoparia); Bassia scoparia, post-emergence, 31 g ai/ha, scale 0 to 100 (0 no effect, 100 complete control), read-out: Kochia plant response rating) of the same compound?
Answer: Its pest or weed control at 31 g/ha is 100%.

Question: What about the pest or weed control at 62 g/ha (kochia (Kochia scoparia); Bassia scoparia, post-emergence, 62 g ai/ha, scale 0 to 100, 0 no effect, 100 complete control, read-out: Plant response rating, Kochia) of the same compound?
Answer: Its pest or weed control at 62 g/ha is 100%.

Question: And the pest or weed control at 125 g/ha (kochia (Kochia scoparia); Bassia scoparia, post-emergence, 125 g ai/ha, scale 0 to 100, 0 no effect, 100 complete control, read-out: Plant response rating, Kochia)?
Answer: The pest or weed control at 125 g/ha was 100%.

Question: And the “Plant response rating (scale 0 to 100), Chickweed” value ([3]; 16 g ai/ha)?
Answer: Its value is 60.

Question: And the pest or weed control at 31 g/ha ([3]; Stellaria media, post-emergence, 31 g ai/ha, scale 0 to 100 (0 no effect, 100 complete control), read-out: Chickweed plant response rating)?
Answer: The pest or weed control at 31 g/ha was 95%.

Question: And the pest or weed control at 62 g/ha ([3]; Stellaria media, post-emergence, 62 g ai/ha, scale 0 to 100, 0 no effect, 100 complete control, read-out: Plant response rating, Chickweed)?
Answer: The pest or weed control at 62 g/ha was 100%.

Question: And the pest or weed control at 125 g/ha ([3]; Stellaria media, post-emergence, 125 g ai/ha, scale 0 to 100, 0 no effect, 100 complete control, read-out: Plant response rating, Chickweed)?
Answer: The pest or weed control at 125 g/ha was 100%.

Question: And the “Plant response rating (scale 0 to 100), Oat, Wild” value (wild oat (Avena fatua); 16 g ai/ha)?
Answer: The value was 20.

Question: What about the pest or weed control at 31 g/ha (wild oat (Avena fatua); Avena fatua, post-emergence, 31 g ai/ha, scale 0 to 100 (0 no effect, 100 complete control), read-out: Oat, Wild plant response rating) of the same compound?
Answer: Its pest or weed control at 31 g/ha is 30%.

Question: What about the pest or weed control at 62 g/ha (wild oat (Avena fatua); Avena fatua, post-emergence, 62 g ai/ha, scale 0 to 100, 0 no effect, 100 complete control, read-out: Oat, Wild plant response rating) of the same compound?
Answer: Its pest or weed control at 62 g/ha is 30%.

Question: And the pest or weed control at 125 g/ha (wild oat (Avena fatua); Avena fatua, post-emergence, 125 g ai/ha, scale 0 to 100, 0 no effect, 100 complete control, read-out: Plant response rating, Oat, Wild)?
Answer: Its pest or weed control at 125 g/ha is 55%.

Question: And the pest or weed control at 125 g/ha ([4]; Abutilon theophrasti, post-emergence, 240 h, 125 g ai/ha, postemergence, 0 to 100 scale, 0 no effect, 100 complete control, read-out: Plant response rating, Velvetleaf)?
Answer: Its pest or weed control at 125 g/ha is 100%.

Question: And the pest or weed control at 500 g/ha ([4]; Abutilon theophrasti, post-emergence, 240 h, postemergence, 0 to 100 scale, 0 no effect, 100 complete control, read-out: Plant response rating, Velvetleaf)?
Answer: The pest or weed control at 500 g/ha was 100%.

Question: What about the pest or weed control at 500 g/ha ([4]; Abutilon theophrasti, pre-emergence, 240 h, Preemergence, 0 to 100 scale where 0 is no effect and 100 is complete control, read-out: Plant response rating, Velvetleaf) of the same compound?
Answer: The pest or weed control at 500 g/ha was 90%.

Question: And the “Velvetleaf plant response rating” value [4, 7]?
Answer: The value was 80.

Question: What about the pest or weed control at 125 g/ha ([5]; Digitaria sanguinalis, post-emergence, 240 h, 125 g ai/ha, postemergence, 0 to 100 scale, 0 no effect, 100 complete control, read-out: Plant response rating, Crabgrass, Large) of the same compound?
Answer: Its pest or weed control at 125 g/ha is 100%.

Question: What about the pest or weed control at 500 g/ha ([5]; Digitaria sanguinalis, post-emergence, 240 h, postemergence, 0 to 100 scale, 0 no effect, 100 complete control, read-out: Plant response rating, Crabgrass, Large) of the same compound?
Answer: Its pest or weed control at 500 g/ha is 100%.

Question: And the pest or weed control at 500 g/ha ([5]; Digitaria sanguinalis, pre-emergence, 240 h, Preemergence, 0 to 100 scale where 0 is no effect and 100 is complete control, read-out: Plant response rating, Crabgrass, Large)?
Answer: The pest or weed control at 500 g/ha was 100%.

Question: What about the “Crabgrass, Large plant response rating” value [5, 7] of the same compound?
Answer: Its value is 100.

Question: What about the pest or weed control at 125 g/ha ([6]; Ipomoea, post-emergence, 240 h, 125 g ai/ha, postemergence, 0 to 100 scale, 0 no effect, 100 complete control, read-out: Plant response rating, Morningglory) of the same compound?
Answer: Its pest or weed control at 125 g/ha is 90%.

Question: And the pest or weed control at 500 g/ha ([6]; Ipomoea, post-emergence, 240 h, postemergence, 0 to 100 scale, 0 no effect, 100 complete control, read-out: Plant response rating, Morningglory)?
Answer: The pest or weed control at 500 g/ha was 100%.

Question: What about the pest or weed control at 500 g/ha ([6]; Ipomoea, pre-emergence, 240 h, Preemergence, 0 to 100 scale where 0 is no effect and 100 is complete control, read-out: Plant response rating, Morningglory) of the same compound?
Answer: Its pest or weed control at 500 g/ha is 100%.

Question: And the “Morningglory plant response rating” value [6, 7]?
Answer: The value was 20.
